Drawing on patent publication US11331369B2, “Endoparasitic depsipeptides” (Zoetis Services LLC, priority 2017, dated 2022), this text covers minimal effective concentration for 13 compounds.

The test system of test [1] is microfilariae of Dirofilaria immitis. The test is described as follows: Dirofilaria immitis, Microfilaria (DiMF) In vitro Assay. It counts as cell-based. Particulars: 72 h, read-out: DiMF Minimum Effective Dose (MED), approximately 72 hours incubation, microfilariae assessed for survival or paralysis.
In test [2] the test system is 4th stage larvae (L4) of Dirofilaria immitis. The test is described as follows: Dirofilaria immitis, L4 Stage (DiL4) In Vitro Assay. It counts as cell-based. Particulars: Dirofilaria immitis, 72 h, read-out: DiL4 Minimum Effective Dose (MED), approximately 72 hours incubation; L4 larvae assessed for survival or paralysis.

On to `Cc1cnn(Cc2ccc(C[C@H]3OC(=O)[C@H](CC(C)C)N(C)C(=O)[C@@H](C)OC(=O)[C@H](CC(C)C)N(C)C(=O)[C@@H](Cc4ccc(Cn5ncc(C)c5C)cc4)OC(=O)[C@H](CC(C)C)N(C)C(=O)[C@@H](C)OC(=O)[C@H](CC(C)C)N(C)C3=O)cc2)c1C` [Example 1b-152, (3S,6R,9S,12R,15S,18R,21S,24R)-6,18-bis(4-((4,5-dimethyl-1H-pyrazol-1-yl)methyl)benzyl)-3,9,15,21-tetraisobutyl-4,10,12,16,22,24-hexamethyl-1,7,13,19-tetraoxa-4,10,16,22-tetraazacyclotetracosan-2,5,8,11,14,17,20,23-octaone], for which the minimal effective concentration in test [1] and in test [2] was 0.001 to 0.01 µM each time.

Take `CC(C)C[C@H]1C(=O)O[C@H](Cc2ccc(Cn3ccc(C#N)c3)cc2)C(=O)N(C)[C@@H](CC(C)C)C(=O)O[C@H](C)C(=O)N(C)[C@@H](CC(C)C)C(=O)O[C@H](Cc2ccc(Cn3ccc(C#N)c3)cc2)C(=O)N(C)[C@@H](CC(C)C)C(=O)O[C@H](C)C(=O)N1C` [Example 9-25, 1-[[4-[[(2R,5S,8R,11S,14R,17S,20R,23S)-14-[[4-[(3-cyanopyrrol-1-yl)methyl]phenyl]methyl]-5,11,17,23-tetraisobutyl-4,8,10,16,20,22-hexamethyl-3,6,9,12,15,18,21,24-octaoxo-1,7,13,19-tetraoxa-4,10,16,22-tetrazacyclotetracos-2-yl]methyl]phenyl]methyl]pyrrole-3-carbonitrile]: the values for the minimal effective concentration in test [1] and in test [2] were 0.001 to 0.01 µM and 0.0001 to 0.001 µM, respectively.

As to `CC(C)C[C@H]1C(=O)O[C@H](Cc2ccc(Cn3cc(Cl)cn3)cc2)C(=O)N(C)[C@@H](CC(C)C)C(=O)O[C@H](C)C(=O)N(C)[C@@H](CC(C)C)C(=O)O[C@H](Cc2ccccc2)C(=O)N(C)[C@@H](CC(C)C)C(=O)O[C@H](C)C(=O)N1C` [Example 2-25, (3S,6R,9S,12R,15S,18R,21S,24R)-6-benzyl-18-(4-((4-chloro-1H-pyrazol-1-yl)methyl)benzyl)-3,9,15,21-tetraisobutyl-4,10,12,16,22,24-hexamethyl-1,7,13,19-tetraoxa-4,10,16,22-tetraazacyclotetracosan-2,5,8,11,14,17,20,23-octaone], the figures for the minimal effective concentration in test [1] and in test [2] were 0.001 to 0.01 µM and 0.0001 to 0.001 µM, respectively.

Regarding `CC(C)C[C@H]1C(=O)O[C@H](Cc2ccc(Cn3nc(C#N)cc3C#N)cc2)C(=O)N(C)[C@@H](CC(C)C)C(=O)O[C@H](C)C(=O)N(C)[C@@H](CC(C)C)C(=O)O[C@H](Cc2ccc(Cn3cc(Br)c(C#N)n3)cc2)C(=O)N(C)[C@@H](CC(C)C)C(=O)O[C@H](C)C(=O)N1C` [Example 1a-1, 1-(4-(((2R,5S,8R,11S,14R,17S,20R,23S)-14-(4-((4-bromo-3-cyano-1H-pyrazol-1-yl)methyl)benzyl)-5,11,17,23-tetraisobutyl-4,8,10,16,20,22-hexamethyl-3,6,9,12,15,18,21,24-octaoxo-1,7,13,19-tetraoxa-4,10,16,22-tetraazacyclotetracosan-2-yl)methyl)benzyl)-1H-pyrazole-3,5-dicarbonitrile], the minimal effective concentration was 0.001 to 0.01 µM in test [1] and 0.0001 to 0.001 µM in test [2].

Regarding `COCc1cnn(Cc2ccc(C[C@H]3OC(=O)[C@H](CC(C)C)N(C)C(=O)[C@@H](C)OC(=O)[C@H](CC(C)C)N(C)C(=O)[C@@H](Cc4ccc(Cn5cc(COC)cn5)cc4)OC(=O)[C@H](CC(C)C)N(C)C(=O)[C@@H](C)OC(=O)[C@H](CC(C)C)N(C)C3=O)cc2)c1` [Example 1b-155, (3S,6R,9S,12R,15S,18R,21S,24R)-3,9,15,21-tetraisobutyl-6,18-bis(4-((4-(methoxymethyl)-1H-pyrazol-1-yl)methyl)benzyl)-4,10,12,16,22,24-hexamethyl-1,7,13,19-tetraoxa-4,10,16,22-tetraazacyclotetracosan-2,5,8,11,14,17,20,23-octaone], the minimal effective concentration in test [1] and in test [2] was 0.001 to 0.01 µM each time.

Consider `CC(C)COc1cnn(Cc2ccc(C[C@H]3OC(=O)[C@H](CC(C)C)N(C)C(=O)[C@@H](C)OC(=O)[C@H](CC(C)C)N(C)C(=O)[C@@H](Cc4ccc(Cn5cc(OCC(C)C)cn5)cc4)OC(=O)[C@H](CC(C)C)N(C)C(=O)[C@@H](C)OC(=O)[C@H](CC(C)C)N(C)C3=O)cc2)c1` [Example 1b-172, (3S,6R,9S,12R,15S,18R,21S,24R)-6,18-bis(4-((4-isobutoxy-1H-pyrazol-1-yl)methyl)benzyl)-3,9,15,21-tetraisobutyl-4,10,12,16,22,24-hexamethyl-1,7,13,19-tetraoxa-4,10,16,22-tetraazacyclotetracosan-2,5,8,11,14,17,20,23-octaone], for which the minimal effective concentration is 0.01 to 0.1 µM in test [1] and 0.001 to 0.01 µM in test [2].

As to `CC(C)C[C@H]1C(=O)O[C@H](Cc2ccc(Cn3cc(I)cn3)cc2)C(=O)N(C)[C@@H](CC(C)C)C(=O)O[C@H](C)C(=O)N(C)[C@@H](CC(C)C)C(=O)O[C@H](Cc2ccccc2)C(=O)N(C)[C@@H](CC(C)C)C(=O)O[C@H](C)C(=O)N1C` [Example 2-41, (3S,6R,9S,12R,15S,18R,21S,24R)-6-benzyl-18-(4-((4-iodo-1H-pyrazol-1-yl)methyl)benzyl)-3,9,15,21-tetraisobutyl-4,10,12,16,22,24-hexamethyl-1,7,13,19-tetraoxa-4,10,16,22-tetraazacyclotetracosan-2,5,8,11,14,17,20,23-octaone], the minimal effective concentration in test [1] lay within 0.001 to 0.01 µM; in test [2], 0.0001 to 0.001 µM.

Turning to `CC(C)C[C@H]1C(=O)O[C@H](Cc2ccc(Cn3cc(C#Cc4ccccc4)cn3)cc2)C(=O)N(C)[C@@H](CC(C)C)C(=O)O[C@H](C)C(=O)N(C)[C@@H](CC(C)C)C(=O)O[C@H](Cc2ccccc2)C(=O)N(C)[C@@H](CC(C)C)C(=O)O[C@H](C)C(=O)N1C` [Example 2-64, (3S,6R,9S,12R,15S,18R,21S,24R)-6-benzyl-3,9,15,21-tetraisobutyl-4,10,12,16,22,24-hexamethyl-18-(4-((4-(phenylethynyl)-1H-pyrazol-1-yl)methyl)benzyl)-1,7,13,19-tetraoxa-4,10,16,22-tetraazacyclotetracosan-2,5,8,11,14,17,20,23-octaone], the minimal effective concentration was 0.01 to 0.1 µM in test [1] and 0.0001 to 0.001 µM in test [2].

Turning to `CC(C)C[C@H]1C(=O)O[C@H](Cc2ccc(Cn3cc(Oc4ccccn4)cn3)cc2)C(=O)N(C)[C@@H](CC(C)C)C(=O)O[C@H](C)C(=O)N(C)[C@@H](CC(C)C)C(=O)O[C@H](Cc2ccc(Cn3cc(Oc4ccccn4)cn3)cc2)C(=O)N(C)[C@@H](CC(C)C)C(=O)O[C@H](C)C(=O)N1C` [Example 1b-175, (3S,6R,9S,12R,15S,18R,21S,24R)-3,9,15,21-tetraisobutyl-4,6,10,16,18,22-hexamethyl-12,24-bis(4-((4-(pyridin-2-yloxy)-1H-pyrazol-1-yl)methyl)benzyl)-1,7,13,19-tetraoxa-4,10,16,22-tetraazacyclotetracosan-2,5,8,11,14,17,20,23-octaone], the minimal effective concentration in test [1] and in test [2] was 0.001 to 0.01 µM throughout.

For `CC(C)C[C@H]1C(=O)O[C@H](Cc2ccc(CN3CCOc4ccncc43)cc2)C(=O)N(C)[C@@H](CC(C)C)C(=O)O[C@H](C)C(=O)N(C)[C@@H](CC(C)C)C(=O)O[C@H](Cc2ccc(CN3CCOc4ccncc43)cc2)C(=O)N(C)[C@@H](CC(C)C)C(=O)O[C@H](C)C(=O)N1C` [Example 9-63, (3S,6R,9S,12R,15S,18R,21S,24R)-6,18-bis[[4-(2,3-dihydropyrido[4,3-b][1,4]oxazin-4-ylmethyl)phenyl]methyl]-3,9,15,21-tetraisobutyl-4,10,12,16,22,24-hexamethyl-1,7,13,19-tetraoxa-4,10,16,22-tetrazacyclotetracosane-2,5,8,11,14,17,20,23-octaone], in test [2], the minimal effective concentration lay within 0.001 to 0.01 µM.

For `CC(C)C[C@H]1C(=O)O[C@H](Cc2ccc(Cn3nccc3C3CCCC3)cc2)C(=O)N(C)[C@@H](CC(C)C)C(=O)O[C@H](C)C(=O)N(C)[C@@H](CC(C)C)C(=O)O[C@H](Cc2ccc(Cn3ccc(C4CCCC4)n3)cc2)C(=O)N(C)[C@@H](CC(C)C)C(=O)O[C@H](C)C(=O)N1C` [Example 1a-34, (3S,6R,9S,12R,15S,18R,21S,24R)-6-(4-((3-cyclopentyl-1H-pyrazol-1-yl)methyl)benzyl)-18-(4-((5-cyclopentyl-1H-pyrazol-1-yl)methyl)benzyl)-3,9,15,21-tetraisobutyl-4,10,12,16,22,24-hexamethyl-1,7,13,19-tetraoxa-4,10,16,22-tetraazacyclotetracosan-2,5,8,11,14,17,20,23-octaone], the minimal effective concentration in test [2] lay in the range of 0.001 to 0.01 µM.

With `Cc1nn(Cc2ccc(C[C@H]3OC(=O)[C@H](CC(C)C)N(C)C(=O)[C@@H](C)OC(=O)[C@H](CC(C)C)N(C)C(=O)[C@@H](Cc4ccc(Cn5nc(C)c(Cl)c5C)cc4)OC(=O)[C@H](CC(C)C)N(C)C(=O)[C@@H](C)OC(=O)[C@H](CC(C)C)N(C)C3=O)cc2)c(C)c1Cl` [Example 1b-51, (3S,6R,9S,12R,15S,18R,21S,24R)-6,18-bis(4-((4-chloro-3,5-dimethyl-1H-pyrazol-1-yl)methyl)benzyl)-3,9,15,21-tetraisobutyl-4,10,12,16,22,24-hexamethyl-1,7,13,19-tetraoxa-4,10,16,22-tetraazacyclotetracosan-2,5,8,11,14,17,20,23-octaone], the minimal effective concentration in test [2] lay within 0.0001 to 0.001 µM.

Take `Cc1cc(C#N)nn1Cc1ccc(C[C@H]2OC(=O)[C@H](CC(C)C)N(C)C(=O)[C@@H](C)OC(=O)[C@H](CC(C)C)N(C)C(=O)[C@@H](Cc3ccc(Cn4nc(C#N)cc4C)cc3)OC(=O)[C@H](CC(C)C)N(C)C(=O)[C@@H](C)OC(=O)[C@H](CC(C)C)N(C)C2=O)cc1` [Example 1b-194, 1,1′-(((((2R,5S,8R,11S,14R,17S,20R,23S)-5,11,17,23-tetraisobutyl-4,8,10,16,20,22-hexamethyl-3,6,9,12,15,18,21,24-octaoxo-1,7,13,19-tetraoxa-4,10,16,22-tetraazacyclotetracosane-2,14-diyl)bis(methylene))bis(4,1-phenylene))bis(methylene))bis(5-methyl-1H-pyrazole-3-carbonitrile)]: the minimal effective concentration in test [2] lay within 0.0001 to 0.001 µM.
